Tested on: HBVPol/p11 complex
Assay: Immunofluorescent experiment and confocal microscopy: intracellular location of HBVPol/p11 complex in HepG2 cells co-delivered with HBVPol and p11
Format: cell-based, human
Settings: HepG2 cell co-delivered with HBVPol and p11
Experimental: HepG2 was grown on a chamber slide charged with DMEM (supplemented with 0.1 mM non-essential amino acids and 10% FBS, culturing condition: 37° C., moisturized with a mixture of 95:5% (v/v) air and CO2), and Effectene (Qiagen) was used to deliver genes into the cell. Cells treated with EGTA and to which the gene was delivered, were washed with PBS and fixed with 100% methanol at −20° C. for 15 minutes. The slide was treated with a blocking solution (1% goat serum/PBS) at room temperature for 30 minutes and then reacted with anti-Myc rabbit (1:200) antibody against p11, anti-Flag rabbit (1:200) antibody against HBVPol, or anti-PML mouse (1:200) antibody at 4° C. for one day.
After reaction, the cells were reacted with anti-rabbit or anti-mouse goat secondary antibody, to which rhodamine or fluorscein isothiocyanate was attached, at 37° C. and then a coverslip was attached thereto with mounting solution. […]

SMILES | intracellular location of HBVPol and p11 (0.5 mM for 48 hours, FIG. 5a) | intracellular location of HBVPol and p11 (30 uM for 24 hours, FIG. 5b)
O=C(O)CN(CCOCCOCCN(CC(=O)O)CC(=O)O)CC(=O)O [EGTA] | most of HBVPol and p11 migrated into the nucleus of the cell | –
CC(C)[C@@H]1NC(=O)[C@H](C)OC(=O)[C@@H](C(C)C)NC(=O)[C@@H](C(C)C)OC(=O)[C@H](C(C)C)NC(=O)[C@H](C)OC(=O)[C@@H](C(C)C)NC(=O)[C@@H](C(C)C)OC(=O)[C@H](C(C)C)NC(=O)[C@H](C)OC(=O)[C@@H](C(C)C)NC(=O)[C@@H](C(C)C)OC1=O [valinomycine] | – | HBVPol and p11 remained in the cytoplasm of the cell
